#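 Cells were grown in 96-well plates and exposed to each compound for 48 hours at five concentrations; endpoints were interpolated linearly between bracketing concentrations, or set to the highest concentration if not reached. GI50 marks 50% less growth.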 Calls of active or inactive are those of the source. Cut-off read from the data, not from the text of the source: active = GI50 up to about 1.1 µM and inactive = higher.
# Experiments:
# Assay in all cases: NCI-60 cell line screen, 48 h
# UACC-257 = test system: UACC-257
# A549 = test system: A549
# HCT-116 = test system: HCT-116
# K562 = test system: K562
# LOX IMVI = test system: LOX IMVI
# UACC-62 = test system: UACC-62
# CAKI-1 = test system: CAKI-1
# T47D = test system: T47D
# HOP-62 = test system: HOP-62
# CCRF-CEM = test system: CCRF-CEM
# M14 = test system: M14
# RPMI-8226 = test system: RPMI-8226
# UO-31 = test system: UO-31
# NCI-H522 = test system: NCI-H522
# SK-MEL-5 = test system: SK-MEL-5
# NCI-H23 = test system: NCI-H23
# U-251 = test system: U-251
# SF-539 = test system: SF-539
# SNB-19 = test system: SNB-19
# Malme-3M = test system: Malme-3M
# MDA-MB-435 = test system: MDA-MB-435
# OVCAR-8 = test system: OVCAR-8
# MOLT-4 = test system: MOLT-4
# NCI-H226 = test system: NCI-H226
# A498 = test system: A498
# OVCAR-4 = test system: OVCAR-4
# SK-OV-3 = test system: SK-OV-3
# SR = test system: SR
# DU-145 = test system: DU-145
# SF-295 = test system: SF-295
# MDA-MB-231 = test system: MDA-MB-231
# MDA-N = test system: MDA-N
# IGROV-1 = test system: IGROV-1
# SNB-75 = test system: SNB-75
# SW-620 = test system: SW-620
# MCF7 = test system: MCF7
# HT-29 = test system: HT-29
# EKVX = test system: EKVX
# SN12C = test system: SN12C
# NCI-H460 = test system: NCI-H460
# SF-268 = test system: SF-268
# OVCAR-5 = test system: OVCAR-5
# SK-MEL-28 = test system: SK-MEL-28
# ACHN = test system: ACHN
# Hs-578T = test system: Hs-578T
# HCT-15 = test system: HCT-15
# 786-0 = test system: 786-0
# HOP-92 = test system: HOP-92
# NCI/ADR-RES = test system: NCI/ADR-RES
# COLO 205 = test system: COLO 205
# TK-10 = test system: TK-10
# HCC 2998 = test system: HCC 2998
# HL-60 = test system: HL-60
# KM12 = test system: KM12
# RXF 393 = test system: RXF 393
structure (smiles),measurement,setting,value
CC[C@@]1(O)C(=O)OCc2c1cc1n(c2=O)Cc2c-1nc1ccccc1c2/C=N\c1ccc(N[C@@H]2c3cc4c(cc3[C@@H](c3cc(OC)c(O)c(OC)c3)[C@H]3C(=O)OC[C@@H]32)OCO4)cc1,GI50,UACC-257,0.189 µM (active)
same,GI50,A549,0.0292 µM (active)
same,GI50,HCT-116,0.0208 µM (active)
same,GI50,K562,0.0505 µM (active)
same,GI50,LOX IMVI,< 0.01 µM (active)
same,GI50,UACC-62,< 0.01 µM (active)
same,GI50,CAKI-1,< 0.01 µM (active)
same,GI50,T47D,< 0.01 µM (active)
same,GI50,HOP-62,< 0.01 µM (active)
same,GI50,CCRF-CEM,< 0.01 µM (active)
same,GI50,M14,< 0.01 µM (active)
same,GI50,RPMI-8226,0.0396 µM (active)
same,GI50,UO-31,0.0213 µM (active)
same,GI50,NCI-H522,0.0254 µM (active)
same,GI50,SK-MEL-5,0.0288 µM (active)
same,GI50,NCI-H23,0.0118 µM (active)
same,GI50,U-251,0.0904 µM (active)
same,GI50,SF-539,< 0.01 µM (active)
same,GI50,SNB-19,0.0257 µM (active)
COc1ccc(Oc2nc3cc(N)cc(N)c3nc2-c2ccccc2)cc1,GI50,HOP-62,19.2 µM (inactive)
same,GI50,Malme-3M,55.1 µM (inactive)
same,GI50,RPMI-8226,10.5 µM (inactive)
CCC(c1ccc(N(C)C)cc1)C1NC(=S)NC1=O (stereo not given),GI50,UACC-257,> 100 µM (inactive)
same,GI50,A549,> 100 µM (inactive)
same,GI50,MDA-MB-435,34.4 µM (inactive)
same,GI50,OVCAR-8,> 100 µM (inactive)
same,GI50,HCT-116,47 µM (inactive)
same,GI50,MOLT-4,30.7 µM (inactive)
same,GI50,K562,20.1 µM (inactive)
same,GI50,NCI-H226,87.3 µM (inactive)
same,GI50,LOX IMVI,97.9 µM (inactive)
same,GI50,A498,50.6 µM (inactive)
same,GI50,OVCAR-4,62.7 µM (inactive)
same,GI50,SK-OV-3,> 100 µM (inactive)
same,GI50,SR,8.11 µM (inactive)
same,GI50,DU-145,> 100 µM (inactive)
same,GI50,SF-295,67.9 µM (inactive)
same,GI50,MDA-MB-231,> 100 µM (inactive)
same,GI50,MDA-N,59.7 µM (inactive)
same,GI50,IGROV-1,58.3 µM (inactive)
same,GI50,SNB-75,85.9 µM (inactive)
same,GI50,SW-620,68.9 µM (inactive)
same,GI50,MCF7,> 100 µM (inactive)
same,GI50,CAKI-1,> 100 µM (inactive)
same,GI50,T47D,78.3 µM (inactive)
same,GI50,CCRF-CEM,48.9 µM (inactive)
same,GI50,HT-29,57.1 µM (inactive)
same,GI50,EKVX,51.5 µM (inactive)
same,GI50,SN12C,> 100 µM (inactive)
same,GI50,NCI-H460,> 100 µM (inactive)
same,GI50,SF-268,> 100 µM (inactive)
same,GI50,OVCAR-5,> 100 µM (inactive)
same,GI50,SK-MEL-28,> 100 µM (inactive)
same,GI50,Malme-3M,> 100 µM (inactive)
same,GI50,ACHN,> 100 µM (inactive)
same,GI50,M14,74.8 µM (inactive)
same,GI50,RPMI-8226,46 µM (inactive)
same,GI50,Hs-578T,> 100 µM (inactive)
same,GI50,HCT-15,40.2 µM
same,GI50,786-0,> 100 µM (inactive)
same,GI50,HOP-92,> 100 µM (inactive)
same,GI50,UO-31,96.8 µM (inactive)
same,GI50,NCI-H522,> 100 µM (inactive)
same,GI50,SK-MEL-5,37.8 µM (inactive)
same,GI50,NCI/ADR-RES,> 100 µM (inactive)
same,GI50,COLO 205,98.2 µM (inactive)
same,GI50,TK-10,85.5 µM (inactive)
same,GI50,NCI-H23,> 100 µM (inactive)
same,GI50,U-251,86.7 µM (inactive)
same,GI50,SF-539,> 100 µM (inactive)
same,GI50,HCC 2998,> 100 µM (inactive)
same,GI50,SNB-19,> 100 µM (inactive)
same,GI50,HL-60,17.5 µM (inactive)
same,GI50,KM12,62.7 µM (inactive)
same,GI50,RXF 393,> 100 µM (inactive)

# Source: ChEMBL document CHEMBL1201862, “PubChem BioAssay data set” (2004)
